{"source": "patent US20200024278A1", "about": "“COMPOSITION COMPRISING ANTIBIOTIC COMPOUND AND AN HETEROCYCLIC COMPOUND AND THEIR USE IN PREVENTING OR TREATING BACTERIAL INFECTIONS” (MUTABILIS, priority 2016, published 2020)", "experiment_in_all_cases": "MIC, broth microdilution (CLSI), substance alone or ATB combined with compound at 4 or 8 μg/mL", "key": {"SPN 49619": {"system": "SPN 49619", "format": "cell-based, S. pneumoniae", "conditions": "SPN 49619", "outline": "(§1)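 Each strain received 5·10^5 CFU/mL of log-phase cells in ca-MHB over DMSO-spotted compound or compound-antibiotic combinations. After 16-20 h at 35° C, growth was scored visually.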"}, "KPN BAA-1898": {"system": "KPN BAA-1898", "format": "cell-based, K. pneumoniae", "conditions": "KPN BAA-1898; for MIC: Klebsiella pneumoniae, BAA1898", "outline": "as §1"}, "KPN UFR42": {"system": "KPN UFR42", "format": "cell-based, K. pneumoniae", "conditions": "KPN UFR42", "outline": "as §1"}, "KPN 6299": {"system": "KPN 6299", "format": "cell-based, K. pneumoniae", "conditions": "for MIC: Klebsiella pneumoniae", "outline": "as §1"}, "SAU 29213": {"system": "SAU 29213", "format": "cell-based, S. aureus", "conditions": "SAU 29213", "outline": "as §1"}, "ECL P99": {"system": "ECL P99", "format": "cell-based, E. cloacae", "conditions": "ECL P99; for MIC: Enterobacter cloacae", "outline": "as §1"}, "[1]": {"conditions": "antibiotic alone, read-out: MIC ATB alone"}}, "note": "Where two headings read alike, the source gives them in different places."}
{"smiles": "COCC1=C(C(=O)O)N2C(=O)[C@@H](NC(=O)/C(=N\\OC)c3csc(N)n3)[C@H]2SC1", "note": "[POD, Cefpodoxime, reference compound]", "values": [{"measurement": "MIC ATB combined with Example 15 @4 μgml", "setting": "SPN 49619; with Example 15 at 4 μg/ml", "result": "<=0.031 μg/mL"}, {"measurement": "MIC ATB combined with Example 16 @4 μg/ml", "setting": "SPN 49619; with Example 16 at 4 μg/ml", "result": "<0.031", "unit": "µg/mL"}, {"measurement": "MIC", "setting": "SPN 49619; Streptococcus pneumoniae, antibiotic alone, read-out: MIC ATB alone", "result": 0.063, "unit": "µg/mL"}, {"measurement": "MIC ATB combined with Example 1 @8 μg/ml", "setting": "KPN BAA-1898; with Example 1 at 8 μg/ml", "result": 1, "unit": "µg/mL"}, {"measurement": "MIC ATB combined with Example 7 @8 μgml", "setting": "KPN BAA-1898; with Example 7 at 8 μg/ml", "result": 2, "unit": "µg/mL"}, {"measurement": "MIC ATB combined with Example 9 @4 μg/ml", "setting": "KPN BAA-1898; with Example 9 at 4 μg/ml", "result": "<0.031", "unit": "µg/mL"}, {"measurement": "MIC ATB combined with Example 11 @8 μg/ml", "setting": "KPN BAA-1898; with Example 11 at 8 μg/ml", "result": "<0.031", "unit": "µg/mL"}, {"measurement": "MIC ATB combined with Example 12 @8 μg/ml", "setting": "KPN BAA-1898; with Example 12 at 8 μg/ml", "result": "<0.031", "unit": "µg/mL"}, {"measurement": "MIC ATB combined with Example 13 @8 μg/ml", "setting": "KPN BAA-1898; with Example 13 at 8 μg/ml", "result": 1, "unit": "µg/mL"}, {"measurement": "MIC ATB combined with Example 14 @8 μg/ml", "setting": "KPN BAA-1898; with Example 14 at 8 μg/ml", "result": "<0.031", "unit": "µg/mL"}, {"measurement": "MIC ATB combined with Example 15 @4 μgml", "setting": "KPN BAA-1898; with Example 15 at 4 μg/ml", "result": "<0.031", "unit": "µg/mL"}, {"measurement": "MIC ATB combined with Example 16 @4 μg/ml", "setting": "KPN BAA-1898; with Example 16 at 4 μg/ml", "result": "<0.031", "unit": "µg/mL"}, {"measurement": "MIC", "setting": "KPN BAA-1898; [1]", "result": "> 512", "unit": "µg/mL"}, {"measurement": "MIC", "setting": "KPN BAA-1898; substance alone, read-out: MIC", "result": "> 512", "unit": "µg/mL"}, {"measurement": "MIC ATB combined with Example 1 @8 μg/ml", "setting": "KPN UFR42; with Example 1 at 8 μg/ml", "result": ">32", "unit": "µg/mL"}, {"measurement": "MIC ATB combined with Example 7 @8 μgml", "setting": "KPN UFR42; with Example 7 at 8 μg/ml", "result": ">32", "unit": "µg/mL"}, {"measurement": "MIC ATB combined with Example 9 @4 μg/ml", "setting": "KPN UFR42; with Example 9 at 4 μg/ml", "result": ">32", "unit": "µg/mL"}, {"measurement": "MIC ATB combined with Example 11 @8 μg/ml", "setting": "KPN UFR42; with Example 11 at 8 μg/ml", "result": "<0.031", "unit": "µg/mL"}, {"measurement": "MIC ATB combined with Example 12 @8 μg/ml", "setting": "KPN UFR42; with Example 12 at 8 μg/ml", "result": "<0.031", "unit": "µg/mL"}, {"measurement": "MIC ATB combined with Example 13 @8 μg/ml", "setting": "KPN UFR42; with Example 13 at 8 μg/ml", "result": ">32", "unit": "µg/mL"}, {"measurement": "MIC ATB combined with Example 14 @8 μg/ml", "setting": "KPN UFR42; with Example 14 at 8 μg/ml", "result": "<0.031", "unit": "µg/mL"}, {"measurement": "MIC ATB combined with Example 15 @4 μgml", "setting": "KPN UFR42; with Example 15 at 4 μg/ml", "result": "<0.031", "unit": "µg/mL"}, {"measurement": "MIC ATB combined with Example 16 @4 μg/ml", "setting": "KPN UFR42; with Example 16 at 4 μg/ml", "result": "<0.031", "unit": "µg/mL"}, {"measurement": "MIC", "setting": "KPN UFR42; Klebsiella pneumoniae, antibiotic alone, read-out: MIC ATB alone", "result": "> 256", "unit": "µg/mL"}, {"measurement": "MIC", "setting": "KPN 6299; [1]", "result": 64, "unit": "µg/mL"}, {"measurement": "MIC", "setting": "KPN 6299; substance alone, read-out: MIC", "result": 64, "unit": "µg/mL"}, {"measurement": "MIC ATB combined with Example 1 @8 μg/ml", "setting": "KPN 6299; with Example 1 at 8 μg/ml", "result": 0.25, "unit": "µg/mL"}, {"measurement": "MIC ATB combined with Example 7 @8 μgml", "setting": "KPN 6299; with Example 7 at 8 μg/ml", "result": 0.25, "unit": "µg/mL"}, {"measurement": "MIC ATB combined with Example 9 @4 μg/ml", "setting": "KPN 6299; with Example 9 at 4 μg/ml", "result": "<0.031", "unit": "µg/mL"}, {"measurement": "MIC ATB combined with Example 11 @8 μg/ml", "setting": "KPN 6299; with Example 11 at 8 μg/ml", "result": "<0.031", "unit": "µg/mL"}, {"measurement": "MIC ATB combined with Example 12 @8 μg/ml", "setting": "KPN 6299; with Example 12 at 8 μg/ml", "result": "<0.031", "unit": "µg/mL"}, {"measurement": "MIC ATB combined with Example 13 @8 μg/ml", "setting": "KPN 6299; with Example 13 at 8 μg/ml", "result": 0.125, "unit": "µg/mL"}, {"measurement": "MIC ATB combined with Example 14 @8 μg/ml", "setting": "KPN 6299; with Example 14 at 8 μg/ml", "result": "<0.031", "unit": "µg/mL"}, {"measurement": "MIC ATB combined with Example 15 @4 μgml", "setting": "KPN 6299; with Example 15 at 4 μg/ml", "result": "<0.031", "unit": "µg/mL"}, {"measurement": "MIC ATB combined with Example 16 @4 μg/ml", "setting": "KPN 6299; with Example 16 at 4 μg/ml", "result": "<0.031", "unit": "µg/mL"}, {"measurement": "MIC ATB combined with Example 1 @8 μg/ml", "setting": "SAU 29213; with Example 1 at 8 μg/ml", "result": 4, "unit": "µg/mL"}, {"measurement": "MIC ATB combined with Example 7 @8 μgml", "setting": "SAU 29213; with Example 7 at 8 μg/ml", "result": 2, "unit": "µg/mL"}, {"measurement": "MIC ATB combined with Example 9 @4 μg/ml", "setting": "SAU 29213; with Example 9 at 4 μg/ml", "result": "<=0.031 μg/mL"}, {"measurement": "MIC ATB combined with Example 11 @8 μg/ml", "setting": "SAU 29213; with Example 11 at 8 μg/ml", "result": "<0.031", "unit": "µg/mL"}, {"measurement": "MIC ATB combined with Example 12 @8 μg/ml", "setting": "SAU 29213; with Example 12 at 8 μg/ml", "result": "<0.031", "unit": "µg/mL"}, {"measurement": "MIC ATB combined with Example 13 @8 μg/ml", "setting": "SAU 29213; with Example 13 at 8 μg/ml", "result": 2, "unit": "µg/mL"}, {"measurement": "MIC ATB combined with Example 14 @8 μg/ml", "setting": "SAU 29213; with Example 14 at 8 μg/ml", "result": "<0.031", "unit": "µg/mL"}, {"measurement": "MIC ATB combined with Example 15 @4 μgml", "setting": "SAU 29213; with Example 15 at 4 μg/ml", "result": "<0.031", "unit": "µg/mL"}, {"measurement": "MIC ATB combined with Example 16 @4 μg/ml", "setting": "SAU 29213; with Example 16 at 4 μg/ml", "result": "<0.031", "unit": "µg/mL"}, {"measurement": "MIC", "setting": "SAU 29213; Staphylococcus aureus, antibiotic alone, read-out: MIC ATB alone", "result": 4, "unit": "µg/mL"}, {"measurement": "MIC ATB combined with Example 1 @8 μg/ml", "setting": "ECL P99; with Example 1 at 8 μg/ml", "result": "<=0.031 μg/mL"}, {"measurement": "MIC ATB combined with Example 7 @8 μgml", "setting": "ECL P99; with Example 7 at 8 μg/ml", "result": 16, "unit": "µg/mL"}, {"measurement": "MIC ATB combined with Example 9 @4 μg/ml", "setting": "ECL P99; with Example 9 at 4 μg/ml", "result": "<0.031", "unit": "µg/mL"}, {"measurement": "MIC ATB combined with Example 11 @8 μg/ml", "setting": "ECL P99; with Example 11 at 8 μg/ml", "result": "<0.031", "unit": "µg/mL"}, {"measurement": "MIC ATB combined with Example 12 @8 μg/ml", "setting": "ECL P99; with Example 12 at 8 μg/ml", "result": "<0.031", "unit": "µg/mL"}, {"measurement": "MIC ATB combined with Example 13 @8 μg/ml", "setting": "ECL P99; with Example 13 at 8 μg/ml", "result": 4, "unit": "µg/mL"}, {"measurement": "MIC ATB combined with Example 14 @8 μg/ml", "setting": "ECL P99; with Example 14 at 8 μg/ml", "result": "<0.031", "unit": "µg/mL"}, {"measurement": "MIC ATB combined with Example 15 @4 μgml", "setting": "ECL P99; with Example 15 at 4 μg/ml", "result": "<0.031", "unit": "µg/mL"}, {"measurement": "MIC ATB combined with Example 16 @4 μg/ml", "setting": "ECL P99; with Example 16 at 4 μg/ml", "result": "<0.031", "unit": "µg/mL"}, {"measurement": "MIC", "setting": "ECL P99; [1]", "result": "> 512", "unit": "µg/mL"}, {"measurement": "MIC", "setting": "ECL P99; substance alone, read-out: MIC", "result": "> 512", "unit": "µg/mL"}]}
